The values below come from publication PMC11389391, “Acetylation of SAMHD1 at lysine 580 is crucial for blocking HIV-1 infection” (mBio, 2024).

The test concerns the target T1, SAMHD1_114-626 (Homo sapiens, UniProt Q9Y3Z3).
T1 construct: gene SAMHD1; purified recombinant residues 114-626 (HD domain and C-terminus, SAM domain removed); monomer without nucleotides, tetramer with GTP/dTTP
The test is described as follows: 1H NMR dTTP hydrolysis rate versus GTP concentration. The class given is biochemical. The text has this: 1H NMR dTTP hydrolysis rate versus GTP concentration on SAMHD1_114-626 | we determine the EC50^GTP (half-maximal effective concentration) and kcat

T1 sequence (Q9Y3Z3 114-626): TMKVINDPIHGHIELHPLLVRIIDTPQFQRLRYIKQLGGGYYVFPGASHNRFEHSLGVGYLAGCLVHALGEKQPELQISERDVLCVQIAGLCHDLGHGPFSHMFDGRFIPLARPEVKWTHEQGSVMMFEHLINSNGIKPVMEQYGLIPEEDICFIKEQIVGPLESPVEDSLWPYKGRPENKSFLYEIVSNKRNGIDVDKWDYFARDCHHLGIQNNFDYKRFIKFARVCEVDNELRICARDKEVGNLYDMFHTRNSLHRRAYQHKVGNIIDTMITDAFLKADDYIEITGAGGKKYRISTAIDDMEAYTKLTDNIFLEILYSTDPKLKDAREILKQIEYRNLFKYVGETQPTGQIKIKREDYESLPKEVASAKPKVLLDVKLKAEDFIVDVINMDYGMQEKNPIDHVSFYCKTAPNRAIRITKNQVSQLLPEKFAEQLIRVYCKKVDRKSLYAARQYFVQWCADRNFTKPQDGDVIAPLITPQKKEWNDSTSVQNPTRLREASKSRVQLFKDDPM

As for `Nc1nc2c(ncn2[C@@H]2O[C@H](COP(=O)(O)OP(=O)(O)OP(=O)(O)O)[C@@H](O)[C@H]2O)c(=O)[nH]1` [GTP], a half-maximal response (EC50) required 1700 nM.
